Results published in patent US12616203B2, “Use of 3-isoxazolidinones compounds as selective herbicides” (FMC Corporation, priority 2014, dated 2026).
Where two headings read alike, the source gives them in different places.

Legend:
[1] = test system: Pennsylvania smartweed (PS); test: PRE greenhouse, 2,4-DC + sulfentrazone (Tables 3-3B), % control; format: in vivo, Polygonum pennsylvanicum; conditions: 28 DAT, g ai/ha by row: r7-35 2,4-DC 31.2/62.5/125/250/375 (3 rows each) + sulfentrazone 105/210/315 (cycling), r37-41 2,4-DC 31.2/62.5/125/250/375, r42-44 sulfentrazone 105/210/315
Procedure: (§1) Test compositions containing 2,4-DC Example 1B and sulfentrazone (Spartan® 4F, 39.6% active ingredient, FMC Corp.) and mixtures of 2-(2,4-dichlorophenyl)methyl-4,4-dimethyl-3-isoxazolidinone and sulfentrazone, were diluted with water to provide the appropriate test rate concentration.
(§2) The test weeds were Pennsylvania smartweed (PS) (Polygonum pennsylvanicum), Palmer amaranth (PA) (Amaranthus palmeri), velvetleaf (VL) (Abutilon theophrasti), green foxtail (GF) (Setaria viridis), morningglory (MG) (Ipomoea spp.), yellow nutsedge (YN) (Cyperus esculentus), purple nutsedge (PN) (Cyperus rotundus), and benghal dayflower (BD) (Commelina benghalensis). Crops included in the evaluation were corn, wheat, and cowpea. […]
(§3) The application rates are those shown in Table 3, 3A, an d 3B below for the individual herbicidal solutions and the herbicide compositions of the present invention. […] The control of weeds was evaluated in each experimental test at 28 days after treatment (DAT), 14 DAT for crops. […] Percent weed control was determined by a method similar to the 0 to 100 rating system disclosed in “Research Methods in Weed Science,” 2nd ed., B. Truelove, Ed.; Southern Weed Science Society; Auburn University, Auburn, Ala., 1977.

[2] = test system: weeds; corn, wheat, cotton, cowpea, and bush bean; test: Ex42 PRE greenhouse; format: in vivo; conditions: crop and rate in the words
Excerpt: Thereafter flats were watered and fertilized routinely.

[3] = test system: weeds; test: Ex10 PRE greenhouse; format: in vivo; conditions: 28 DAT, weed and rate in the words
Excerpt: Treatments 1-12 of 2,4-DC and aclonifen tank-mix combinations follow same rates listed above. […] Sulfentrazone (Spartan 4F® 39.6%) at 280 g ai/ha, pendimethalin (Prowl 3.3®EC, 37.4%) at 784 g ai/ha, or S-metolachlor (Dual II Magnum® 82.4%) at 1084 g ai/ha were applied as commercial standards. Treatments were replicated 3 times and flats were watered after planting but before the treatment and lightly watered after treatment application. Thereafter flats were watered and fertilized routinely. […] Shepherd's-purse was rated at 21 and 28 DAT only, due to delayed emergence.

[4] = test system: Palmer amaranth (PA); test: PRE greenhouse, 2,4-DC + sulfentrazone, % control; format: in vivo, Amaranthus palmeri; conditions: 28 DAT, g ai/ha by row: r7-35 2,4-DC 31.2/62.5/125/250/375 (3 rows each) + sulfentrazone 105/210/315 (cycling), r37-41 2,4-DC 31.2/62.5/125/250/375, r42-44 sulfentrazone 105/210/315
Procedure: as §1, §2, §3

[5] = test system: Corn; conditions: 21 DAT, PRE
Excerpt: (Ipomoea spp.); Italian ryegrass (Lolium perenne L. ssp. multiflorum, LOLMU). Crops tested included corn, wheat, cotton, cowpea, and bush bean.
Palmer amaranth, common ragweed, Pennsylvania smartweed, velvetleaf, wild oat, green foxtail, morningglory, and Italian ryegrass were screened. […] Thereafter flats were watered and fertilized routinely.

[6] = test system: green foxtail (GF); test: PRE greenhouse, 2,4-DC + sulfentrazone, % control; format: in vivo, Setaria viridis; conditions: 28 DAT, g ai/ha by row: r7-35 2,4-DC 31.2/62.5/125/250/375 (3 rows each) + sulfentrazone 105/210/315 (cycling)
Procedure: as §1, §2, §3

[7] = test system: weeds; Sugarcane (CTC20); test: Ex23 PRE greenhouse; conditions: 28 DAT, weed and rate in the words
Procedure: (Ipomoea spp). The tested crop in this study was Sugarcane (CTC20).
Sugarcane was direct seeded into 6″ plastic pots using 3-4″ sugarcane setts, oriented bud up, with bud leaf shield removed. 2,4 DC and sulfentrazone were applied alone or combined as tank-mix at each rate mentioned below. […] Treatments were replicated 3 times. […] Thereafter flats were watered and fertilized routinely. […] Visual percent sugarcane injury was recorded at 21 and 28 DAT, using a scale of 0 (no injury, observed as bleaching, stunting or necrosis) to 100 (complete plant death).

[8] = test system: sedges; test: Ex26 PRE greenhouse; format: in vivo; conditions: 28 DAT, weed and rate in the words
Excerpt: Treatments were applied at the time of planting to yellow nutsedge, purple nutsedge, and benghal dayflower. […] Flats were watered and fertilized routinely after treatment application.

[9] = test system: morningglory (MG); test: PRE greenhouse, 2,4-DC + sulfentrazone, % control; format: in vivo, Ipomoea spp.; conditions: 28 DAT, g ai/ha by row: r7-35 2,4-DC 31.2/62.5/125/250/375 (3 rows each) + sulfentrazone 105/210/315 (cycling), r37-41 2,4-DC 31.2/62.5/125/250/375, r42-44 sulfentrazone 105/210/315
Procedure: as §1, §2, §3

[10] = test system: purple nutsedge (PN); test: PRE greenhouse, 2,4-DC + sulfentrazone, % control; format: in vivo, Cyperus rotundus; conditions: 28 DAT, g ai/ha by row: r8-16 2,4-DC 50/100/200 (3 rows each) + sulfentrazone 105/210/315 (cycling)
Procedure: as §1, §2, §3

[11] = test system: velvetleaf (VL); test: PRE greenhouse, 2,4-DC + sulfentrazone, % control; format: in vivo, Abutilon theophrasti; conditions: 28 DAT, g ai/ha by row: r7-35 2,4-DC 31.2/62.5/125/250/375 (3 rows each) + sulfentrazone 105/210/315 (cycling), r37-41 2,4-DC 31.2/62.5/125/250/375, r42-44 sulfentrazone 105/210/315
Procedure: as §1, §2, §3

[12] = test system: benghal dayflower (BD); test: PRE greenhouse, 2,4-DC + sulfentrazone, % control; format: in vivo, Commelina benghalensis; conditions: 28 DAT, g ai/ha by row: r8-16 2,4-DC 50/100/200 (3 rows each) + sulfentrazone 105/210/315 (cycling)
Procedure: as §1
(§4) The test weeds were Pennsylvania smartweed (PS) (Polygonum pennsylvanicum), Palmer amaranth (PA) (Amaranthus palmeri), velvetleaf (VL) (Abutilon theophrasti), green foxtail (GF) (Setaria viridis), morningglory (MG) (Ipomoea spp.), yellow nutsedge (YN) (Cyperus esculentus), purple nutsedge (PN) (Cyperus rotundus), and benghal dayflower (BD) (Commelina benghalensis). Crops included in the evaluation were corn, wheat, and cowpea.
(§5) For pre-emergence testing, four disposable fiber flats (6″ by 10″) for each rate of application of each herbicide solution were filled with top soil, to which seeds of each species were planted in furrows made by a template pressed on the top of the soil. The furrows with crop/weed seeds were covered with soil and were watered well before application of the test compounds. Flats designated for treatment were placed in a spray chamber having a static platform and a movable sprayer and height of the spray nozzle was 10.5 inches above the soil level. Once the sprayer was calibrated using water for spray volume of 30 gallons per acre, flats were sprayed with sprayer at a speed to receive a coverage equivalent of 30 gallons per acre.
The application rates are those shown in Table 3, 3A, an d 3B below for the individual herbicidal solutions and the herbicide compositions of the present invention. The pre-emergence flats were immediately placed in the greenhouse and watered lightly after treatment for herbicide activation. […] The control of weeds was evaluated in each experimental test at 28 days after treatment (DAT), 14 DAT for crops. […] Percent weed control was determined by a method similar to the 0 to 100 rating system disclosed in “Research Methods in Weed Science,” 2nd ed., B. Truelove, Ed.; Southern Weed Science Society; Auburn University, Auburn, Ala., 1977.

[13] = test system: yellow nutsedge (YN); test: PRE greenhouse, 2,4-DC + sulfentrazone, % control; format: in vivo, Cyperus esculentus; conditions: 28 DAT, g ai/ha by row: r8-16 2,4-DC 50/100/200 (3 rows each) + sulfentrazone 105/210/315 (cycling)
Procedure: as §1, §4, §5
The application rates are those shown in Table 3, 3A, an d 3B below for the individual herbicidal solutions and the herbicide compositions of the present invention. The pre-emergence flats were immediately placed in the greenhouse and watered lightly after treatment for herbicide activation. Thereafter they were regularly watered and feterilized for the duration of the test. The control of weeds was evaluated in each experimental test at 28 days after treatment (DAT), 14 DAT for crops. The results, shown as an average of the replications, were compared with results observed in untreated control flats in the same tests. Percent weed control was determined by a method similar to the 0 to 100 rating system disclosed in “Research Methods in Weed Science,” 2nd ed., B. Truelove, Ed.; Southern Weed Science Society; Auburn University, Auburn, Ala., 1977.

[14] = r17-19 2,4-DC 50/100/200, r20-22 sulfentrazone 105/210/315, 105 g ai/ha
[15] = r17-19 2,4-DC 50/100/200, r20-22 sulfentrazone 105/210/315, 315 g ai/ha
[16] = r17-19 2,4-DC 50/100/200, r20-22 sulfentrazone 105/210/315, 210 g ai/ha

Cc1nn(-c2cc(NS(C)(=O)=O)c(Cl)cc2Cl)c(=O)n1C(F)F [sulfentrazone] was tested, and the “% Control PS” value [1] was 100%, the “crop safety in words” value [2] was “alone was safe on corn and bush bean only at 105 g, wheat and cowpea at 105 or 210 g 14 DAT” and the “weed control in words” value [3] was “at 280 g provided control of all weeds except quackgrass, annual bluegrass, and blackgrass”. For the same molecule, the “% Control PA” value [4] was 100%, the “crop injury, Sulfentrazone alone” value ([5]; sulfentrazone 105 g ai/ha) was 3% and the “crop injury, Sulfentrazone alone” value ([5]; sulfentrazone 210 g ai/ha) was 10%. For the same molecule, the “crop injury, Sulfentrazone alone” value ([5]; sulfentrazone 315 g ai/ha) was 38%, the “% Control GF” value ([6]; r37-41 2,4-DC 31.2/62.5/125/250/375, r42-44 sulfentrazone 105/210/315, 105 g ai/ha) was 84% and the “% Control GF” value ([6]; r37-41 2,4-DC 31.2/62.5/125/250/375, r42-44 sulfentrazone 105/210/315, 210 g ai/ha) was 100%. For the same molecule, the “weed control in words” value [7] was “alone controlled hairy beggarticks at 315 g; all other weeds were controlled with all rates”, the “weed control in words” value [8] was “alone controlled yellow nutsedge at all rates, benghal dayflower at 210 or 315 g and did not control purple nutsedge at any rate” and the “% Control MG” value [9] was 100%. The “% Control PN” value [10, 14] was 77%, the “% Control PN” value [10, 15] was 83% and the “% Control VL” value [11] was 100%. For the same molecule, the “% Control BD” value [12, 14] was 72%, the “% Control BD” value [12, 16] was 88% and the “% Control BD” value [12, 15] was 90%. For the same molecule, the “% Control YN” value [13, 14] was 85%, the “% Control YN” value [13, 16] was 95% and the “% Control YN” value [13, 15] was 100%.
